Entries after “also recorded” stand apart in the source; their conditions may differ.
Columns and labels:
mice [1] = assay: analgesic potency in mice, tail-flick method, icv injection; type: in vivo, mouse; details: for AD50 / Relative Potency (analgesic potency) / analgesic activity: mice, tail-flick; for AD50: 95% confidence limits in parentheses; for Relative Potency (analgesic potency): calculated on molar basis using the AD50 of βc-endorphin as 100%; for order of activity in the mouse tail flick method: human endorphin analogs vs camel endorphin analogs, route not stated
Description: (§1) The analgesic properties of β-endorphin and its analogs were also assessed in mice by the tail-flick method of D'Amour and Smith, supra. The peptides, dissolved in saline, were injected either icv in a volume of 5 μl, according to the method described by Haley and McCormick, Brit. J. Pharmacol. 12, 12 (1957) or iv via the tail vein. To evaluate this analgesic response, a control latency (T0) was obtained from the mean of two latencies determined prior to drug injections, and the test latencies (T1) were determined at various times after injection for each animal. "Percent analgesic" was calculated as [(T1 -T0)/[…]]×100, where the cut off time (T2) was 10 sec.

[2] = cited from earlier work; for in vivo analgesic activity (duration): injected intracranially / centrally
[3] = tested on: myenteric plexus longitudinal muscle preparation from guinea pig ileum; assay: opiate activity, guinea pig ileum assay (electrically stimulated); type: cell-based; details: for IC50: in vitro; for Relative Potency: relative to βc-endorphin = 100; for order of activity in the guinea pig ileum assay: human endorphin analogs vs camel endorphin analogs
Description: (§2) The opiate activities of the analogs relative to βc -endorphin were measured in vitro in the guinea pig ileum (Brit. J. Pharmacol. 39, 398 (1970)) and in vivo by icv and iv injections using the tail-flick method (D'Amour and Smith, J. Pharmacol. Exp. Ther. 72,74 (1941). The results are summarized in Tables 2 and 3.
The opiate activity was assayed in vitro by electrically stimulated myenteric plexus longitudinal muscle preparation from guinea pig ileum by the method of Kosterlitz et al., supra.

mice [4] = assay: analgesic potency in mice, tail-flick method, iv injection; type: in vivo, mouse; details: for inhibition of tail-flick response: iv
Description: as §2, §1

[5] = injected into the peripheral system; cited from earlier work
leucine aminopeptidase = details: compared with enkephalin; cited from earlier work

CN1CC[C@]23c4c5ccc(O)c4O[C@H]2[C@@H](O)C=C[C@H]3[C@H]1C5.O=S(=O)(O)O [Morphine sulfate, reference compound]
AD50 (mice [1]; icv): 0.42 (0.36-0.49) μg/25 g mouse

CC(C)C[C@H](NC(=O)[C@H](Cc1ccccc1)NC(=O)CNC(=O)CNC(=O)[C@@H](N)Cc1ccc(O)cc1)C(=O)O [enkephalin]
in vivo analgesic activity (duration) [2]: short duration

[D-Ala^2 ]-enkephalin
in vivo analgesic activity (duration) [2]: long-lasting analgesia

[D-Ala^2 ]-β-enkephalinamide
in vivo analgesic activity (duration) [2]: long-lasting analgesia | analgesic activity compared with enkephalin ([2]; relative to enkephalin, route not stated at the place): greater analgesic activity

[D-Ala^2 ]-βc -endorphin [[D-Ala^2]-βc -EP]
activity in in vitro assay relative to parent molecule ([3]; guinea pig ileum): 43% | IC50 ([3]; guinea pig ileum): 63 nM | Relative Potency [3]: 43 | Relative Potency (analgesic potency) (mice [1]): 100.0% | Relative Potency (analgesic potency) (mice [1]; listed as [D-Ala^2 ]-βc -endorphin): 100% | antagonism of analgesic response by naloxone (mice [1]; icv, doses of 0.11 to 0.42 μg): blocked by naloxone | duration of analgesic response (mice [1]; icv, doses of 0.11 to 0.42 μg): 30 to 90 min | antagonism of analgesic response by naloxone (mice [1]; icv, higher dose): also blocked by naloxone | duration of response at higher dose (mice [1]; icv, higher dose): prolonged | analgesic activity (mice [1]; icv): little alteration in analgesic activity | analgesic activity (mice [1]; icv, listed as [D-Ala^2 ]-β-endorphin): most significant analgesic activity; also recorded: equipotent to βc -endorphin; also recorded: dose-related increase in analgesic response | AD50 (mice [1]; icv): 0.11 (0.08-0.17) μg/25 g mouse | inhibition of tail-flick response (mice [4]; 25.5 mg/kg): not active

[D-Ala^2 ]-βh -endorphin
order of activity in the guinea pig ileum assay [3]: same order of activity | order of activity in the mouse tail flick method (mice [1]): same order of activity

[D-Met^5 ]-βc -endorphin [[D-Met^5]-βc -EP]
IC50 ([3]; guinea pig ileum): 660 nM | Relative Potency [3]: 4 | Relative Potency (analgesic potency) (mice [1]): 1.0% | analgesic activity (mice [1]; icv): still possesses analgesic activity | AD50 (mice [1]; icv): 11.48 (7.17-18.36) μg/25 g mouse | inhibition of tail-flick response (mice [4]; even at 120 mg/kg): not active

[D-Met^5 ]-βh -endorphin
order of activity in the guinea pig ileum assay [3]: same order of activity | order of activity in the mouse tail flick method (mice [1]): same order of activity

[D-Phe^4 ]-βc -endorphin [[D-Phe^4]-βc -EP]
IC50 ([3]; guinea pig ileum): 670 nM | Relative Potency [3]: 4 | Relative Potency (analgesic potency) (mice [1]): < 0.3% | behavioural effect (hyperreactivity) (mice [1]; icv, doses up to 43 μg): hyperreactivity to touch or vocal stimulation | inhibition of tail-flick response (mice [1]; icv, doses up to 43 μg): not active | AD50 (mice [1]; icv): > 43 μg/25 g mouse

[D-Phe^4 ]-βh -endorphin
order of activity in the guinea pig ileum assay [3]: same order of activity | order of activity in the mouse tail flick method (mice [1]): same order of activity

[D-Tyr^1 ]-βc -endorphin [[D-Tyr^1]-βc -EP]
IC50 ([3]; guinea pig ileum): 2900 nM | Relative Potency [3]: ≤ 1 | Relative Potency (analgesic potency) (mice [1]): 0.5% | AD50 (mice [1]; icv): 22.5 (13.4-37.8) μg/25 g mouse

[D-Tyr^1 ]-βh -endorphin
order of activity in the guinea pig ileum assay [3]: same order of activity | order of activity in the mouse tail flick method (mice [1]): same order of activity

β-endorphin
in vivo analgesic activity, peripheral injection [5]: displays in vivo analgesic activity when injected into the peripheral system | in vivo analgesic activity (duration) [2]: long lasting | duration of action (mice [4]; intravenous, comparison of β-endorphin with D-Ala^2 analog): longer than its D-Ala^2 analog | AD50 (mice [4]; iv injection): 9.4 mg/kg | analgesic activity after iv injection (mice [4]; iv injection): potent analgesic

βc -endorphin: β-endorphin having a sequence derived from camel; synthesized as control (YGGFMTSEKSQTPLVTLFKNAIIKNAHKKGQ; Beta-endorphin; UniProt P01203 1-31, looked up) [reference compound]
resistance to attack by leucine aminopeptidase (leucine aminopeptidase): substantially more resistant to attack by leucine aminopeptidase than is enkephalin | IC50 ([3]; guinea pig ileum): 27 nM | Relative Potency [3]: 100 | Relative Potency (analgesic potency) (mice [1]): 100.0% | analgesic activity (mice [1]; icv): much more active than morphine | AD50 (mice [1]; icv): 0.11 (0.07-0.17) μg/25 g mouse

From patent US4317770A, “D-amino acid analogs of beta-endorphin” (Hoffmann-La Roche Inc., priority 1977, dated 1982)
